# Experimental data taken from PubChem BioAssay (NCI).
# Values joined by “and” are separate entries in the source; they are usually repeats but may differ in a detail not shown here. Identical values can stand only once.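 In this assay, cells in 96-well plates receive the compound at five concentrations for 48 hours. Endpoints are linearly interpolated between the surrounding concentrations. GI50: concentration for 50% inhibition of growth. At the TGI there is no net growth.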
# What was measured:
# Assay in all cases: NCI-60 cell line screen, 48 h
# [1] = tested on: UACC-62 melanoma
# [2] = tested on: CCRF-CEM leukemia
# [3] = tested on: U251 CNS
# [4] = tested on: 786-0 renal
# [5] = tested on: EKVX NSCLC
# [6] = tested on: CAKI-1 renal
# [7] = tested on: MDA-MB-435
# [8] = tested on: OVCAR-4 ovarian
# [9] = tested on: OVCAR-3 ovarian
# [10] = tested on: MDA-MB-231 breast
# [11] = tested on: HOP-92 NSCLC
# [12] = tested on: HCC-2998 colon
# [13] = tested on: K-562 leukemia
# [14] = tested on: KM12 colon
# [15] = tested on: OVCAR-8 ovarian
# [16] = tested on: SR leukemia
# [17] = tested on: A498 renal
# [18] = tested on: UO-31 renal
# [19] = tested on: HL-60(TB) leukemia
# [20] = tested on: NCI-H460 lung
# [21] = tested on: SK-MEL-28 melanoma
# [22] = tested on: SF-539 CNS
# [23] = tested on: SK-OV-3 ovarian
# [24] = tested on: SK-MEL-5 melanoma
# [25] = tested on: TK-10 renal
# [26] = tested on: HS 578T breast
# [27] = tested on: SK-MEL-2 melanoma
# [28] = tested on: LOX IMVI melanoma
# [29] = tested on: SNB-19 CNS
# [30] = tested on: IGROV1 ovarian
# [31] = tested on: MALME-3M melanoma
# [32] = tested on: NCI-H23 lung
# [33] = tested on: OVCAR-5 ovarian
# [34] = tested on: NCI/ADR-RES ovarian
# [35] = tested on: COLO 205 colon
# [36] = tested on: RPMI-8226 leukemia
# [37] = tested on: MOLT-4 leukemia
# [38] = tested on: SNB-75 CNS
# [39] = tested on: HT29 colon
# [40] = tested on: SF-268 CNS
# [41] = tested on: PC-3 prostate
# [42] = tested on: A549 NSCLC
# [43] = tested on: M14 melanoma
# [44] = tested on: MCF7 breast
# [45] = tested on: UACC-257 melanoma
# [46] = tested on: HCT-116 colon
# [47] = tested on: SF-295 CNS
# [48] = tested on: DU-145 prostate
# [49] = tested on: NCI-H522 lung
# [50] = tested on: HCT-15 colon
# [51] = tested on: T-47D breast
# [52] = tested on: ACHN renal
# [53] = tested on: HOP-62 NSCLC
# [54] = tested on: NCI-H226 lung
# [55] = tested on: SN12C renal
# [56] = tested on: BT-549 breast
# [57] = tested on: SW-620 colon
# [58] = tested on: RXF 393 renal
smiles,measurement,setting,value
O=C(c1c(F)ccc(NS(=O)(=O)N2CC[C@@H](F)C2)c1F)c1c[nH]c2ncc(-c3cnc(C4CC4)nc3)cc12,GI50,[1],0.0033 µM and < 0.01 µM
same,TGI,[1],0.13 µM and 0.123 µM
same,GI50,[2],6.52 µM and 7.64 µM
same,TGI,[2],> 100 µM
same,GI50,[3],5.94 µM and 7.53 µM
same,TGI,[3],> 10 µM and 39.3 µM
same,GI50,[4],5.46 µM and 6.36 µM
same,TGI,[4],> 10 µM and 56.7 µM
same,GI50,[5],> 10 µM and 9.15 µM
same,TGI,[5],> 10 µM and 51.5 µM
same,GI50,[6],3.22 µM and 3.29 µM
same,TGI,[6],> 10 µM and 29.8 µM
same,GI50,[7],0.0174 µM and 0.0272 µM
same,TGI,[7],> 10 µM and 23.1 µM
same,GI50,[8],6.02 µM and 4.39 µM
same,TGI,[8],> 69.7 µM
same,GI50,[9],> 8.35 µM and 6.04 µM
same,TGI,[9],> 10 µM and 57.4 µM
same,GI50,[10],2.88 µM and 3.47 µM
same,TGI,[10],> 10 µM and 46.8 µM
same,GI50,[11],0.576 µM and 2.24 µM
same,TGI,[11],> 10 µM and 32.8 µM
same,GI50,[12],> 10 µM and 12.5 µM
same,TGI,[12],> 10 µM and 29.8 µM
same,GI50,[13],3.68 µM and 3.12 µM
same,TGI,[13],> 100 µM
same,GI50,[14],8.25 µM and 9.66 µM
same,TGI,[14],> 10 µM and 33.6 µM
same,GI50,[15],5.22 µM and 7.06 µM
same,TGI,[15],> 10 µM and 55.3 µM
same,GI50,[16],5.35 µM and 3.93 µM
same,TGI,[16],> 10 µM and 79.6 µM
same,GI50,[17],3.95 µM and 3.77 µM
same,TGI,[17],> 10 µM and 23.1 µM
same,GI50,[18],3.41 µM and 3.79 µM
same,TGI,[18],> 10 µM and 25.5 µM
same,GI50,[19],7.69 µM and 6.11 µM
same,TGI,[19],> 10 µM and 41.3 µM
same,GI50,[20],4.25 µM and 4.67 µM
same,TGI,[20],> 10 µM and 26.3 µM
same,GI50,[21],0.00375 µM and < 0.01 µM
same,TGI,[21],0.194 µM and 0.599 µM
same,GI50,[22],6.74 µM and 6.17 µM
same,TGI,[22],> 10 µM and 23.7 µM
same,GI50,[23],3.39 µM and 3.66 µM
same,TGI,[23],> 10 µM and 21.4 µM
same,GI50,[24],1.01 µM and 0.651 µM
same,TGI,[24],> 10 µM and 16.7 µM
same,GI50,[25],3.53 µM and 8.03 µM
same,TGI,[25],> 66.9 µM
same,GI50,[26],2.33 µM and 2.06 µM
same,TGI,[26],> 10 µM and 15.7 µM
same,GI50,[27],2.17 µM and 3.25 µM
same,TGI,[27],> 8.34 µM and 15.7 µM
same,GI50,[28],0.305 µM and 0.342 µM
same,TGI,[28],> 10 µM and 17.2 µM
same,GI50,[29],> 10 µM and 9.77 µM
same,TGI,[29],> 85.4 µM
same,GI50,[30],2.35 µM and 2.14 µM
same,TGI,[30],> 10 µM and 17 µM
same,GI50,[31],0.00378 µM and < 0.01 µM
same,TGI,[31],< 0.043 µM
same,GI50,[32],> 10 µM and 10.2 µM
same,TGI,[32],> 10 µM and 41.1 µM
same,GI50,[33],> 6.42 µM and 9.04 µM
same,TGI,[33],> 10 µM and 46.4 µM
same,GI50,[34],> 10 µM and 25.2 µM
same,TGI,[34],> 100 µM
same,GI50,[35],0.00482 µM and < 0.01 µM
same,TGI,[35],> 7.6 µM and 12.2 µM
same,GI50,[36],5.59 µM and 5.45 µM
same,TGI,[36],> 10 µM and 42.2 µM
same,GI50,[37],6.66 µM and 5.12 µM
same,TGI,[37],> 10 µM and 35.5 µM
same,GI50,[38],1.77 µM and 2.17 µM
same,TGI,[38],> 10 µM and 12.8 µM
same,GI50,[39],0.0124 µM and 0.0118 µM
same,TGI,[39],> 10 µM and 12.4 µM
same,GI50,[40],5.86 µM and 6.77 µM
same,TGI,[40],> 10 µM and 71.3 µM
same,GI50,[41],7.03 µM and 6.82 µM
same,TGI,[41],> 10 µM and 70 µM
same,GI50,[42],5.85 µM and 7.09 µM
same,TGI,[42],> 10 µM and 40.3 µM
same,GI50,[43],0.00625 µM and < 0.01 µM
same,TGI,[43],> 4.09 µM and 10.4 µM
same,GI50,[44],> 9.13 µM and 10.1 µM
same,TGI,[44],> 10 µM and 44.5 µM
same,GI50,[45],0.00965 µM and < 0.01 µM
same,TGI,[45],0.174 µM and 0.0739 µM
same,GI50,[46],4.52 µM and 4.11 µM
same,TGI,[46],> 10 µM and 41.8 µM
same,GI50,[47],5.87 µM and 4.71 µM
same,TGI,[47],> 10 µM and 33.5 µM
same,GI50,[48],6.03 µM and 5.37 µM
same,TGI,[48],> 76.8 µM
same,GI50,[49],3.05 µM and 4.34 µM
same,TGI,[49],> 10 µM and 22.7 µM
same,GI50,[50],5.69 µM and 5.21 µM
same,TGI,[50],> 10 µM and 40.6 µM
same,GI50,[51],2.91 µM and 2.43 µM
same,TGI,[51],> 10 µM and 16.5 µM
same,GI50,[52],4.91 µM and 4.34 µM
same,TGI,[52],> 65.9 µM
same,GI50,[53],6.24 µM and 7.01 µM
same,TGI,[53],> 10 µM and 58.6 µM
same,GI50,[54],4.81 µM and 9.14 µM
same,TGI,[54],> 10 µM and 64.6 µM
same,GI50,[55],4.89 µM and 4.81 µM
same,TGI,[55],> 10 µM and 54.2 µM
same,GI50,[56],> 8.75 µM and 6.83 µM
same,TGI,[56],> 10 µM and 38.1 µM
same,GI50,[57],> 7.76 µM and 10.9 µM
same,TGI,[57],> 10 µM and 35 µM
same,GI50,[58],3.46 µM and 4.36 µM
same,TGI,[58],> 10 µM and 25 µM
